Laboratory results from ChEMBL document CHEMBL5233217, “Modification of 7-piperazinylquinolone antibacterials to promising anticancer lead compounds: Synthesis and in vitro studies” (Eur J Med Chem, 2020).

How the values were obtained:
[1] = system: Panel NCI-60 (60 carcinoma cell lines); assay: Anticancer activity against human Panel NCI-60 (60 carcinoma cell lines) cells assessed as cell growth inhibition incubated for 48 hrs by sulforhodamine B assay; format: functional
L1210 [2] = assay: Antiproliferative activity against mouse L1210 cells assessed as reduction in cell viability by MTT assay; format: functional, cell-based
[3] = Cytotoxicity against Chinese hamster CHO cells assessed as reduction in cell viability by MTT assay; format: toxicity, cell-based, Cricetulus griseus
L1210 [4] = assay: Cytotoxicity against mouse L1210 cells assessed as reduction in cell viability by MTT assay; format: functional, cell-based
HL-60 [5] = assay: Cytotoxicity against human HL-60 cells assessed as reduction in cell viability by MTT assay; format: functional, cell-based
Hep 3B2 = assay: Antiproliferative activity against human Hep3B cells assessed as reduction in cell viability; format: functional, cell-based
SiHa = assay: Antiproliferative activity against human SiHa cells assessed as cell growth inhibition incubated for 48 hrs by sulforhodamine B assay; format: functional
PANC-1 = assay: Antiproliferative activity against human PANC-1 cells assessed as cell growth inhibition incubated for 48 hrs by sulforhodamine B assay; format: functional
CT26 = assay: Antitumor activity against mouse CT26 cells assessed as reduction in cell viability incubated for 4 hrs by MTT assay; format: functional, cell-based; settings: CT26, 4 h
SK-MEL3 = assay: Anticancer activity against human SK-MEL3 cells assessed as reduction in cell viability incubated for 72 hrs by MTT assay; format: functional, cell-based; settings: SK-MEL3, 72 h
KB = assay: Anticancer activity against human KB cells assessed as reduction in cell viability incubated for 72 hrs by MTT assay; format: functional, cell-based
MCF7 = assay: Anticancer activity against human MCF7 cells assessed as reduction in cell viability incubated for 72 hrs by MTT assay; format: functional, cell-based; settings: MCF7, 72 h
A-431 = assay: Anticancer activity against human A-431 cells assessed as reduction in cell viability incubated for 72 hrs by MTT assay; format: functional, cell-based; settings: A-431, 72 h
A549 = assay: Antitumor activity against human A549 cells assessed as reduction in cell viability incubated for 4 hrs by MTT assay; format: functional, cell-based; settings: A549, 4 h
SW480 = assay: Anticancer activity against human SW480 cells assessed as reduction in cell viability incubated for 72 hrs by MTT assay; format: functional, cell-based; settings: SW480, 72 h
EJ = assay: Anticancer activity against human EJ cells assessed as reduction in cell viability incubated for 72 hrs by MTT assay; format: functional, cell-based
HL-60 [6] = assay: Cytotoxicity against human HL-60 cells assessed as reduction in cell viability incubated for 48 hrs by MTT assay; format: functional, cell-based; settings: HL-60, 48 h
L1210 [7] = assay: Cytotoxicity against mouse L1210 cells assessed as reduction in cell viability incubated for 48 hrs by MTT assay; format: functional, cell-based; settings: L1210, 48 h
[8] = Cytotoxicity against Chinese hamster CHO cells assessed as reduction in cell viability incubated for 48 hrs by MTT assay; format: toxicity, cell-based, Cricetulus griseus
SMMC-7721 = assay: Antiproliferative activity against human SMMC-7721 cells assessed as reduction in cell viability incubated for 24 hrs by MTT assay; format: functional, cell-based; settings: SMMC-7721, 24 h

With `COc1ccc(C(=O)CN2CCN(c3cc4c(cc3F)c(=O)c(C(=O)O)cn4-c3ccc(N)cc3F)CC2)cc1` the GI50 [1] was 22 µM.

In the case of `CCN1CCN(c2cc3c(cc2F)c(=O)c(-c2nn4c(-c5cn(C6CC6)c6cc(N7CCN(CC)CC7)c(F)cc6c5=O)nnc4s2)cn3C2CC2)CC1`, the IC50 (L1210 [2]) is reported as 1.2 µM.

In the case of `C#Cc1cccc(Nc2ncnc3cc(OCCOC)c(OCCOC)cc23)c1` [ERLOTINIB], the GI50 [1] is reported as 7.29 µM.

Work on `COc1ccc(/C=N/NC(=O)c2cn(C3CC3)c3cc(N4CCNCC4)c(F)cc3c2=O)cc1O` yielded an IC50 [3] of 25 µM, an IC50 (L1210 [4]) of 25 µM and an IC50 (HL-60 [5]) of 25 µM.

`CCn1cc(-c2nn(CN(C)C)c(=S)o2)c(=O)c2cc(F)c(N3CCN(C)CC3)cc21` gave an IC50 (Hep 3B2) of 8.4 µM.

With `O=C(O)c1cn(C2CC2)c2cc(N3CCN(C(=O)CCSc4nnnn4Cc4ccccc4)CC3)c(F)cc2c1=O` the GI50 (SiHa) was 0.06 µM and the GI50 (PANC-1) was 0.06 µM.

For `CCn1cc(-c2nn(CNc3ccc(Cl)cc3)c(=S)o2)c(=O)c2cc(F)c(N3CCN(C)CC3)cc21`, the IC50 (Hep 3B2) was 45.4 µM.

In the case of `CCn1cc(C(=O)O)c(=O)c2cc(F)c(N3CCNCC3)cc21` [NORFLOXACIN], the IC50 (CT26) is reported as 330 µM, the IC50 (SK-MEL3) is reported as > 128 µM and the IC50 (KB) is reported as > 128 µM. The IC50 (MCF7) was > 128 µM, the IC50 (A-431) was > 128 µM and the IC50 (A549) was 330 µM. The IC50 (SW480) was > 128 µM, the IC50 (L1210 [2]) was > 150 µM and the IC50 (EJ) was > 128 µM.

Compound `CCn1cc(C(=O)O)c(=O)c2cnc(N3CCN(C(=O)CCSc4nnnn4-c4ccc(Br)cc4)CC3)nc21` has a GI50 (SiHa) of 0.06 µM and a GI50 (PANC-1) of 0.06 µM.

With `O=C(O)c1cn(C2CC2)c2cc(N3CCN(CP(=O)(c4ccccc4)c4ccccc4)CC3)c(F)cc2c1=O` the IC50 (CT26) was 150 µM and the IC50 (A549) was 150 µM.

With `CCn1cc(C(=O)O)c(=O)c2cc(F)c(N3CCN(CC(=O)c4ccc(OC)cc4)CC3)c(F)c21` the GI50 [1] was 22 µM.

`O=C(N/N=C/c1ccc([N+](=O)[O-])cc1)c1cn(C2CC2)c2cc(N3CCNCC3)c(F)cc2c1=O` showed an IC50 [3] of 25 µM, an IC50 (L1210 [4]) of 25 µM and an IC50 (HL-60 [5]) of 25 µM.

`O=C(O)c1cn(C2CC2)c2cc(N3CCN(C(=O)CCSc4nnnn4-c4ccc(Br)cc4)CC3)c(F)cc2c1=O` gave a GI50 (SiHa) of 0.06 µM and a GI50 (PANC-1) of 0.06 µM.

Compound `Cc1cc(C)c(S(=O)(=O)N2CCN(c3cc4c(cc3F)c(=O)c(C(=O)O)cn4C3CC3)CC2)c(C)c1` has a GI50 [1] of 2.63 µM.

In the case of `COc1cc(/C=N/NC(=O)c2cn(C3CC3)c3cc(N4CCNCC4)c(F)cc3c2=O)cc(OC)c1OC`, the IC50 [3] is reported as 25 µM, the IC50 (L1210 [4]) is reported as 25 µM and the IC50 (HL-60 [5]) is reported as 25 µM.

Work on `COc1ccc(/C=N/n2c(-c3cn4c5c(c(N6CCN(C)CC6)c(F)cc5c3=O)OCC4C)n[nH]c2=S)cc1O` (configuration not stated) yielded an IC50 (HL-60 [6]) of 10.5 µM, an IC50 (L1210 [7]) of 10.5 µM and an IC50 at 48 h [8] of 10.5 µM.

With `CCn1cc(C(=O)O)c(=O)c2cc(F)c(N3CCN(S(=O)(=O)c4cccc5ccccc45)CC3)cc21` the GI50 [1] was 2.63 µM.

`O=C(O)c1cn(C2CC2)c2cc(N3CCN(CP(=S)(c4ccccc4)c4ccccc4)CC3)c(F)cc2c1=O` showed an IC50 (CT26) of 150 µM and an IC50 (A549) of 150 µM.

For `CCn1cc(C(=O)O)c(=O)c2cc(F)c(N3CCN(CP(=S)(c4ccccc4)c4ccccc4)CC3)cc21`, the IC50 (CT26) was 150 µM and the IC50 (A549) was 150 µM.

Compound `COc1ccc(/C=N/NC(=O)c2cn(C3CC3)c3cc(N4CCNCC4)c(F)cc3c2=O)cc1` has an IC50 [3] of 25 µM, an IC50 (L1210 [4]) of 25 µM and an IC50 (HL-60 [5]) of 25 µM.

Work on `O=C(N/N=C/c1ccccc1O)c1cn(C2CC2)c2cc(N3CCNCC3)c(F)cc2c1=O` yielded an IC50 [3] of 25 µM, an IC50 (L1210 [4]) of 25 µM and an IC50 (HL-60 [5]) of 25 µM.

`O=C(O)c1cn(C2CC2)c2cc(N3CCN(CP(c4ccccc4)c4ccccc4)CC3)c(F)cc2c1=O` gave an IC50 (CT26) of 150 µM and an IC50 (A549) of 150 µM.

In the case of `CCn1cc(C(=O)O)c(=O)c2cnc(N3CCN(C(=O)CCSc4nnnn4-c4ccc(F)c(F)c4F)CC3)nc21`, the GI50 (SiHa) is reported as 0.06 µM and the GI50 (PANC-1) is reported as 0.06 µM.

Compound `COc1ccccc1-c1nnc(CSc2nnc(-c3cn4c5c(c(N6CC[N+](C)(C)CC6)c(F)cc5c3=O)OC[C@@H]4C)o2)o1` has an IC50 [3] of 0.41 µM, an IC50 (SMMC-7721) of 0.82 µM and an IC50 (HL-60 [5]) of 1.6 µM.

`O=c1[nH]cc(F)c(=O)[nH]1` [FLUOROURACIL] showed a GI50 [1] of 22.6 µM.

With `O=C(O)c1cn(C2CC2)c2cc(N3CCNCC3)c(F)cc2c1=O` [CIPROFLOXACIN] the IC50 (CT26) was 330 µM, the IC50 (SK-MEL3) was > 128 µM and the IC50 [3] was > 150 µM. For the same compound, the IC50 (KB) was > 128 µM, the IC50 (MCF7) was > 128 µM and the IC50 (A-431) was > 128 µM. For the same compound, the IC50 (A549) was 330 µM, the IC50 (SW480) was > 128 µM and the IC50 (L1210 [4]) was > 150 µM. The IC50 (L1210 [2]) was > 150 µM, the IC50 (HL-60 [5]) was > 150 µM and the IC50 (EJ) was > 128 µM.
